Data reported in patent US10364466B2, “Biological markers for identifying patients for treatment with VEGF antagonists” (Genentech, Inc., priority 2012, dated 2019).

Key:
VDV gene expression = assay: Microarray VDV signature expression in pre- and post-treatment biopsies of inflammatory breast cancer patients (Table 3, human IBC Log2FC); type: in vivo; conditions: 19 inflammatory breast cancer patients, one dose single agent, 21 days post-treatment; published micro-array data (Wedam et al.)
Text: The log2 ratio intensity values from Agilent WMG microarrays and the Robust Multi-array Average (RMA) normalized intensities (also on the logarithmic scale) from Affymetrix Mouse430.2 microarrays were imported into R as expression sets using the package “Biobase,” and a linear model was fitted to each feature using the functions “lmFit” and “eBayes” in the “limma” package. […] The union of these genes was taken as representative of the VEGF-responsive vasculature. The extent to which this VDV gene expression signature varied in other experiments was determined by fitting a linear model to the microarray data using the “limma” package (as above) and calculating the mean of the t-statistics from gene in the signature according to the method of Falcon and Gentleman (Bioinformatics. 23: 257-258, 2007).
As depicted in Table 3 below, the genes in the VDV signature were ordered by the extent of anti-VEGF response in the human IBC trial. Orthologs between human and mouse were mapped using the Ensembl Biomart, where “Log 2FC” represents the log(2) fold-change of the gene's expression post-Avastin treatment as compared to pre-treatment. The 19 paired patient samples and the murine PNETs were analyzed on Agilent microarrays. […]

[1] = system: metastatic colorectal carcinoma (CRC); assay: NO16966 first-line metastatic colorectal cancer trial, PFS and OS, stratified by 22-gene VDV signature; type: in vivo, human
Method: Sections from archival tumor samples from patients enrolled in the XELOX treatment arms of NO 16966 were evaluated by a pathologist and high tumor content area macro-dissected for subsequent RNA isolation using the FFPE RNA isolation kit (Roche; 7-10 sections per patient). RNA levels were assessed after cDNA synthesis following standard techniques, with the qPCR protocol on the Fluidigm Biomark platform according to the manufacturer's protocol.
Quantitative histological data from various animal experiments were plotted using Microsoft Excel software. Student's t test was applied to compare data sets of interest and differences with p values <0.05 were considered significant. 103 biopsies out of 1017 patients from the XELOX (capecitabine and oxaliplatin)-containing arm in the NO16966 trial were analyzed for the gene expression of VDV genes. qRT-PCR values were normalized by the housekeeping genes and relative to a universal reference sample to derive delta-delta Ct values. Subsequently, the delta-delta Ct value of each of the 22 VDV genes was mean centered and variance scaled to a Z-score.
For each sample i for which all of the VDV genes were analyzed, a VDV signature score (VDVi) was calculated. The VDVi represents a weighted average of z-scores across the analyzed VDV genes and is given by the algorithm:
[formula] wherein Zg,i is the standardized z-score of the qRT-PCR value for gene g of sample i and n, in this instance, is 22. The VDVi value provides quantitative information regarding the extent to which the expression of a particular set of genes is collectively overexpressed or underexpressed relative to a centered mean.
To compare the clinical outcomes (PFS and OS) between marker and/or treatment subgroups, log-rank tests and Cox regression were used, with median time calculated by the Kaplan-Meier analysis. All statistical tests were two-sided.
To test if VDV gene expression could correlate with clinical outcomes, we analyzed VDV gene expression levels in available pre-treatment archival tumor tissue from 103 patients (biomarker evaluable subpopulation) that were enrolled in the XELOX-containing arms. Due to the limited quality and amount of RNA from these clinical samples, gene expression was analyzed in a previously designed and validated “angiogenesis” Fluidigm qRT-PCR chip (FIG. 8B) that included 4 different housekeeping genes (for gene expression normalization), VEGF (as a control), and 22 representative proximal and distal VDV genes comprising: (i) pan-vascular markers such as CD31, CD34, and VE-CADH as indicators of MVD; (ii) key VEGF pathway components and proxVDV genes, including VEGFR-1, VEGFR-2, VEGFR-3, EPHRINB2, NRPs, ESM1, NID2, COL4a2, and LAMA4a; and (iii) additional VDV genes that are components of endothelial signaling pathways and potential modulators of VDV biology, including DLL-4, NOTCH1, ALK1, and EGFL7 (see FIG. 9A for validation of this compacted 22 VDV gene signature).

[2] = system: metastatic colorectal carcinoma (CRC); conditions: whole NO16966 study, Saltz et al. 2008; cited from earlier work
[3] = system: metastatic colorectal carcinoma (CRC); conditions: patients with metastatic CRC, Hurwitz et al. 2004; cited from earlier work
[4] = 103 biomarker evaluable patients, XELOX arms

## bevacizumab: recombinant humanized anti-VEGF monoclonal antibody
VDV gene expression
  VDV transcripts post-treatment vs pre-treatment biopsies: clear down regulation
[1]; [4]
  OS HR, addition to chemotherapy: 0.45
  PFS HR, addition to chemotherapy: 0.59
[1]; VDV high patients
  OS HR, addition to chemotherapy vs chemotherapy alone: 0.31
  PFS HR, addition to chemotherapy vs chemotherapy alone: 0.36
[1]; VDV low patients
  OS HR, combination with chemotherapy vs chemotherapy alone: 0.58
  PFS HR, combination with chemotherapy vs chemotherapy alone: 0.88
[2]
  OS differences (secondary endpoint), addition to chemotherapy: did not reach statistical significance
  primary endpoint of PFS, addition to chemotherapy: significantly improved
[3]
  progression free survival (PFS) and overall survival (OS), combination with chemotherapy: increase
